#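 Each compound was tested at five concentrations against cells in 96-well plates for 48 hours. TGI: total growth inhibition.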
# System: TK-10 renal
# Assay: NCI anticancer screen, dose series, 48 h
row,Structure (SMILES),TGI [µM]
1,Clc1ccc(C2N3CCCCC3[C@@H]3c4[nH]c5ccccc5c4CCN23)cc1 (some centres not stated),> 100
2,CCCCCCCCCCCCCC(=O)OC1CC(=O)OC1CO (configuration not stated),> 100

# System: K-562 leukemia
# Assay: NCI anticancer screen, dose series, 48 h
row,Structure (SMILES),TGI [µM]
1,O=C(N/N=C/c1ccccc1O)c1cccc([N+](=O)[O-])c1,> 100
2,N#C/C(=C/c1ccsc1)C(=O)c1ccccc1,> 100
3,Clc1ccc(C2N3CCCCC3[C@@H]3c4[nH]c5ccccc5c4CCN23)cc1 (some centres not stated),> 100
4,CCCCCCCCCCCCCC(=O)OC1CC(=O)OC1CO (configuration not stated),58.8

# System: HCT-116 colon
# Assay: NCI anticancer screen, dose series, 48 h
row,Structure (SMILES),TGI [µM]
1,O=C(N/N=C/c1ccccc1O)c1cccc([N+](=O)[O-])c1,> 100
2,N#C/C(=C/c1ccsc1)C(=O)c1ccccc1,> 100
3,Clc1ccc(C2N3CCCCC3[C@@H]3c4[nH]c5ccccc5c4CCN23)cc1 (some centres not stated),> 100
4,CCCCCCCCCCCCCC(=O)OC1CC(=O)OC1CO (configuration not stated),> 100

# System: DMS 273 small cell lung
# Assay: NCI anticancer screen, dose series, 48 h
row,Structure (SMILES),TGI [µM]
1,O=C(N/N=C/c1ccccc1O)c1cccc([N+](=O)[O-])c1,> 100
2,N#C/C(=C/c1ccsc1)C(=O)c1ccccc1,> 100
3,Clc1ccc(C2N3CCCCC3[C@@H]3c4[nH]c5ccccc5c4CCN23)cc1 (some centres not stated),> 100
4,CCCCCCCCCCCCCC(=O)OC1CC(=O)OC1CO (configuration not stated),> 100

# System: EKVX NSCLC
# Assay: NCI anticancer screen, dose series, 48 h
row,Structure (SMILES),TGI [µM]
1,O=C(N/N=C/c1ccccc1O)c1cccc([N+](=O)[O-])c1,82.8
2,N#C/C(=C/c1ccsc1)C(=O)c1ccccc1,> 100
3,Clc1ccc(C2N3CCCCC3[C@@H]3c4[nH]c5ccccc5c4CCN23)cc1 (some centres not stated),> 100
4,CCCCCCCCCCCCCC(=O)OC1CC(=O)OC1CO (configuration not stated),> 100

# System: A549 NSCLC
# Assay: NCI anticancer screen, dose series, 48 h
row,Structure (SMILES),TGI [µM]
1,O=C(N/N=C/c1ccccc1O)c1cccc([N+](=O)[O-])c1,> 100
2,N#C/C(=C/c1ccsc1)C(=O)c1ccccc1,> 100
3,Clc1ccc(C2N3CCCCC3[C@@H]3c4[nH]c5ccccc5c4CCN23)cc1 (some centres not stated),> 100
4,CCCCCCCCCCCCCC(=O)OC1CC(=O)OC1CO (configuration not stated),> 100

# System: DMS 114 small cell lung
# Assay: NCI anticancer screen, dose series, 48 h
row,Structure (SMILES),TGI [µM]
1,O=C(N/N=C/c1ccccc1O)c1cccc([N+](=O)[O-])c1,39.3
2,N#C/C(=C/c1ccsc1)C(=O)c1ccccc1,> 100
3,Clc1ccc(C2N3CCCCC3[C@@H]3c4[nH]c5ccccc5c4CCN23)cc1 (some centres not stated),> 100
4,CCCCCCCCCCCCCC(=O)OC1CC(=O)OC1CO (configuration not stated),> 100

# System: CAKI-1 renal
# Assay: NCI anticancer screen, dose series, 48 h
row,Structure (SMILES),TGI [µM]
1,N#C/C(=C/c1ccsc1)C(=O)c1ccccc1,> 100
2,Clc1ccc(C2N3CCCCC3[C@@H]3c4[nH]c5ccccc5c4CCN23)cc1 (some centres not stated),> 100
3,CCCCCCCCCCCCCC(=O)OC1CC(=O)OC1CO (configuration not stated),> 100

# System: SW-620 colon
# Assay: NCI anticancer screen, dose series, 48 h
row,Structure (SMILES),TGI [µM]
1,O=C(N/N=C/c1ccccc1O)c1cccc([N+](=O)[O-])c1,> 100
2,N#C/C(=C/c1ccsc1)C(=O)c1ccccc1,> 100
3,Clc1ccc(C2N3CCCCC3[C@@H]3c4[nH]c5ccccc5c4CCN23)cc1 (some centres not stated),> 100
4,CCCCCCCCCCCCCC(=O)OC1CC(=O)OC1CO (configuration not stated),> 100

# System: RXF 393 renal
# Assay: NCI anticancer screen, dose series, 48 h
row,Structure (SMILES),TGI [µM]
1,O=C(N/N=C/c1ccccc1O)c1cccc([N+](=O)[O-])c1,> 88.9
2,N#C/C(=C/c1ccsc1)C(=O)c1ccccc1,> 100
3,Clc1ccc(C2N3CCCCC3[C@@H]3c4[nH]c5ccccc5c4CCN23)cc1 (some centres not stated),78.7
4,CCCCCCCCCCCCCC(=O)OC1CC(=O)OC1CO (configuration not stated),> 100

# System: M19-MEL melanoma
# Assay: NCI anticancer screen, dose series, 48 h
row,Structure (SMILES),TGI [µM]
1,O=C(N/N=C/c1ccccc1O)c1cccc([N+](=O)[O-])c1,66.2
2,N#C/C(=C/c1ccsc1)C(=O)c1ccccc1,> 100
3,Clc1ccc(C2N3CCCCC3[C@@H]3c4[nH]c5ccccc5c4CCN23)cc1 (some centres not stated),94.7
4,CCCCCCCCCCCCCC(=O)OC1CC(=O)OC1CO (configuration not stated),> 100

# System: SK-OV-3 ovarian
# Assay: NCI anticancer screen, dose series, 48 h
row,Structure (SMILES),TGI [µM]
1,O=C(N/N=C/c1ccccc1O)c1cccc([N+](=O)[O-])c1,> 78.3
2,N#C/C(=C/c1ccsc1)C(=O)c1ccccc1,> 100
3,Clc1ccc(C2N3CCCCC3[C@@H]3c4[nH]c5ccccc5c4CCN23)cc1 (some centres not stated),> 100
4,CCCCCCCCCCCCCC(=O)OC1CC(=O)OC1CO (configuration not stated),> 100

# System: SNB-19 CNS
# Assay: NCI anticancer screen, dose series, 48 h
row,Structure (SMILES),TGI [µM]
1,O=C(N/N=C/c1ccccc1O)c1cccc([N+](=O)[O-])c1,> 100
2,N#C/C(=C/c1ccsc1)C(=O)c1ccccc1,> 100
3,Clc1ccc(C2N3CCCCC3[C@@H]3c4[nH]c5ccccc5c4CCN23)cc1 (some centres not stated),> 100
4,CCCCCCCCCCCCCC(=O)OC1CC(=O)OC1CO (configuration not stated),> 100

# System: SR leukemia
# Assay: NCI anticancer screen, dose series, 48 h
row,Structure (SMILES),TGI [µM]
1,O=C(N/N=C/c1ccccc1O)c1cccc([N+](=O)[O-])c1,> 100
2,N#C/C(=C/c1ccsc1)C(=O)c1ccccc1,> 100

# System: SK-MEL-2 melanoma
# Assay: NCI anticancer screen, dose series, 48 h
row,Structure (SMILES),TGI [µM]
1,O=C(N/N=C/c1ccccc1O)c1cccc([N+](=O)[O-])c1,> 100
2,N#C/C(=C/c1ccsc1)C(=O)c1ccccc1,> 100
3,Clc1ccc(C2N3CCCCC3[C@@H]3c4[nH]c5ccccc5c4CCN23)cc1 (some centres not stated),> 100
4,CCCCCCCCCCCCCC(=O)OC1CC(=O)OC1CO (configuration not stated),> 100

# System: CCRF-CEM leukemia
# Assay: NCI anticancer screen, dose series, 48 h
row,Structure (SMILES),TGI [µM]
1,O=C(N/N=C/c1ccccc1O)c1cccc([N+](=O)[O-])c1,> 100
2,N#C/C(=C/c1ccsc1)C(=O)c1ccccc1,> 100
3,Clc1ccc(C2N3CCCCC3[C@@H]3c4[nH]c5ccccc5c4CCN23)cc1 (some centres not stated),> 100
4,CCCCCCCCCCCCCC(=O)OC1CC(=O)OC1CO (configuration not stated),74.4

# System: NCI-H23 lung
# Assay: NCI anticancer screen, dose series, 48 h
row,Structure (SMILES),TGI [µM]
1,O=C(N/N=C/c1ccccc1O)c1cccc([N+](=O)[O-])c1,> 95.5
2,N#C/C(=C/c1ccsc1)C(=O)c1ccccc1,> 100
3,Clc1ccc(C2N3CCCCC3[C@@H]3c4[nH]c5ccccc5c4CCN23)cc1 (some centres not stated),> 100

# System: UACC-62 melanoma
# Assay: NCI anticancer screen, dose series, 48 h
row,Structure (SMILES),TGI [µM]
1,O=C(N/N=C/c1ccccc1O)c1cccc([N+](=O)[O-])c1,> 70.8
2,N#C/C(=C/c1ccsc1)C(=O)c1ccccc1,> 100
3,Clc1ccc(C2N3CCCCC3[C@@H]3c4[nH]c5ccccc5c4CCN23)cc1 (some centres not stated),> 100
4,CCCCCCCCCCCCCC(=O)OC1CC(=O)OC1CO (configuration not stated),51.1

# System: NCI-H460 lung
# Assay: NCI anticancer screen, dose series, 48 h
row,Structure (SMILES),TGI [µM]
1,O=C(N/N=C/c1ccccc1O)c1cccc([N+](=O)[O-])c1,> 100
2,N#C/C(=C/c1ccsc1)C(=O)c1ccccc1,> 100
3,Clc1ccc(C2N3CCCCC3[C@@H]3c4[nH]c5ccccc5c4CCN23)cc1 (some centres not stated),> 100
4,CCCCCCCCCCCCCC(=O)OC1CC(=O)OC1CO (configuration not stated),> 100

# System: LOX IMVI melanoma
# Assay: NCI anticancer screen, dose series, 48 h
row,Structure (SMILES),TGI [µM]
1,O=C(N/N=C/c1ccccc1O)c1cccc([N+](=O)[O-])c1,> 81.4
2,N#C/C(=C/c1ccsc1)C(=O)c1ccccc1,> 100
3,CCCCCCCCCCCCCC(=O)OC1CC(=O)OC1CO (configuration not stated),73.5

# System: KM20L2 colon
# Assay: NCI anticancer screen, dose series, 48 h
row,Structure (SMILES),TGI [µM]
1,O=C(N/N=C/c1ccccc1O)c1cccc([N+](=O)[O-])c1,> 100
2,N#C/C(=C/c1ccsc1)C(=O)c1ccccc1,> 100
3,Clc1ccc(C2N3CCCCC3[C@@H]3c4[nH]c5ccccc5c4CCN23)cc1 (some centres not stated),96.5
4,CCCCCCCCCCCCCC(=O)OC1CC(=O)OC1CO (configuration not stated),> 100

# System: SNB-75 CNS
# Assay: NCI anticancer screen, dose series, 48 h
row,Structure (SMILES),TGI [µM]
1,N#C/C(=C/c1ccsc1)C(=O)c1ccccc1,> 100
2,Clc1ccc(C2N3CCCCC3[C@@H]3c4[nH]c5ccccc5c4CCN23)cc1 (some centres not stated),> 100
3,CCCCCCCCCCCCCC(=O)OC1CC(=O)OC1CO (configuration not stated),> 100

# System: OVCAR-5 ovarian
# Assay: NCI anticancer screen, dose series, 48 h
row,Structure (SMILES),TGI [µM]
1,O=C(N/N=C/c1ccccc1O)c1cccc([N+](=O)[O-])c1,> 100
2,N#C/C(=C/c1ccsc1)C(=O)c1ccccc1,> 100
3,Clc1ccc(C2N3CCCCC3[C@@H]3c4[nH]c5ccccc5c4CCN23)cc1 (some centres not stated),> 100
4,CCCCCCCCCCCCCC(=O)OC1CC(=O)OC1CO (configuration not stated),> 100

# System: COLO 205 colon
# Assay: NCI anticancer screen, dose series, 48 h
row,Structure (SMILES),TGI [µM]
1,O=C(N/N=C/c1ccccc1O)c1cccc([N+](=O)[O-])c1,> 100
2,N#C/C(=C/c1ccsc1)C(=O)c1ccccc1,> 100
3,CCCCCCCCCCCCCC(=O)OC1CC(=O)OC1CO (configuration not stated),> 100

# System: OVCAR-3 ovarian
# Assay: NCI anticancer screen, dose series, 48 h
row,Structure (SMILES),TGI [µM]
1,O=C(N/N=C/c1ccccc1O)c1cccc([N+](=O)[O-])c1,6.73
2,N#C/C(=C/c1ccsc1)C(=O)c1ccccc1,> 100
3,Clc1ccc(C2N3CCCCC3[C@@H]3c4[nH]c5ccccc5c4CCN23)cc1 (some centres not stated),> 100
4,CCCCCCCCCCCCCC(=O)OC1CC(=O)OC1CO (configuration not stated),> 100

# System: SK-MEL-5 melanoma
# Assay: NCI anticancer screen, dose series, 48 h
row,Structure (SMILES),TGI [µM]
1,O=C(N/N=C/c1ccccc1O)c1cccc([N+](=O)[O-])c1,> 61.3
2,N#C/C(=C/c1ccsc1)C(=O)c1ccccc1,> 100
3,Clc1ccc(C2N3CCCCC3[C@@H]3c4[nH]c5ccccc5c4CCN23)cc1 (some centres not stated),> 100
4,CCCCCCCCCCCCCC(=O)OC1CC(=O)OC1CO (configuration not stated),> 100

# System: M14 melanoma
# Assay: NCI anticancer screen, dose series, 48 h
row,Structure (SMILES),TGI [µM]
1,O=C(N/N=C/c1ccccc1O)c1cccc([N+](=O)[O-])c1,43.2
2,N#C/C(=C/c1ccsc1)C(=O)c1ccccc1,> 100
3,Clc1ccc(C2N3CCCCC3[C@@H]3c4[nH]c5ccccc5c4CCN23)cc1 (some centres not stated),> 100
4,CCCCCCCCCCCCCC(=O)OC1CC(=O)OC1CO (configuration not stated),39.7

# System: SNB-78 CNS
# Assay: NCI anticancer screen, dose series, 48 h
row,Structure (SMILES),TGI [µM]
1,O=C(N/N=C/c1ccccc1O)c1cccc([N+](=O)[O-])c1,> 100
2,N#C/C(=C/c1ccsc1)C(=O)c1ccccc1,> 100
3,Clc1ccc(C2N3CCCCC3[C@@H]3c4[nH]c5ccccc5c4CCN23)cc1 (some centres not stated),> 100
4,CCCCCCCCCCCCCC(=O)OC1CC(=O)OC1CO (configuration not stated),> 100

# System: 786-0 renal
# Assay: NCI anticancer screen, dose series, 48 h
row,Structure (SMILES),TGI [µM]
1,O=C(N/N=C/c1ccccc1O)c1cccc([N+](=O)[O-])c1,> 100
2,N#C/C(=C/c1ccsc1)C(=O)c1ccccc1,> 100
3,Clc1ccc(C2N3CCCCC3[C@@H]3c4[nH]c5ccccc5c4CCN23)cc1 (some centres not stated),> 100
4,CCCCCCCCCCCCCC(=O)OC1CC(=O)OC1CO (configuration not stated),> 100

# — PubChem BioAssay (NCI)
